Patent US9534209B2, “Methods and tools for identification of RSK/MSK kinase inhibitors” (Aarhus Universitet, priority 2012, dated 2017)
Structures can show the parent of a compound that is named as a salt.

Columns and labels:
RSK2 cysteine 599 (C599) = biological target: T1, RSK2 cysteine 599 (C599) (Mus musculus, UniProt P18654); experiment: Mass spectrometric analysis of DMF modification of RSK2; format: binding, murine; settings: chymotrypsin digest, MALDI TOF/TOF
T1 construct: His8 (N, cleaved yes); linker DYDIPTT (N, cleaved yes); TEV protease site ENLYFQG (only the final G remains after cleavage) (N, cleaved yes); made in house; host or cells: E. coli BL21 (DE3) Rosetta, RSK2-pET-22b
T1 sequence (P18654 with tags, fused parts or gaps): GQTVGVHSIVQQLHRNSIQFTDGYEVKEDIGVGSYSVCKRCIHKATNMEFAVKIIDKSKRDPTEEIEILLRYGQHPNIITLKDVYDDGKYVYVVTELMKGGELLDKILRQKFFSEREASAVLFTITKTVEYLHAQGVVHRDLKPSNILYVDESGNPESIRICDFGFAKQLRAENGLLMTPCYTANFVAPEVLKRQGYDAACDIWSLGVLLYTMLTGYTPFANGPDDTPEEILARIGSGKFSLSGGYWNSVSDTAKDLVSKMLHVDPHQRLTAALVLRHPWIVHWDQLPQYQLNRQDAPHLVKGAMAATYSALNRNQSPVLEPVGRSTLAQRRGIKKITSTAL
Description: (§1) A construct of the C-terminal kinase domain of murine Ribosomal S6 Kinase 2 (RSK2) (residues 400-740; SEQ ID NO. 2) including a N-terminal polyhistidine tag (His8), a linker (DYDIPTT) (SEQ ID NO: 21) and a Tobacco Etch Virus (TEV) protease site (ENLYFQG) (SEQ ID NO: 22) in the expressed kinase was designed and ordered from Genscript. The synthesised gene was subcloned into pET-22b (Novagen) by the vendor resulting in RSK2-pET-22b. BI21 (DE3) Rosetta was transformed with RSK2-pET-22b and plated on lysogeny broth (LB) agar plates supplemented with 50 μg/ml ampicillin (Amp) and 35 μg/ml Chloramphenicol (Cam). 5 colonies were used for inoculation of a 20 ml LB overnight culture supplemented with 100 μg/ml Amp and 35 μg/ml Cam. […] Protein concentration was evaluated by spectrophotometry (Nanodrop, Thermo Fisher Scientific) assuming εRSK2=44350 cm^−1 M^−1 and MRSK2=38.4 kDa. […] RSK2 purity was evaluated by SDS-PAGE using a 15% separation gel. […] The purification procedure resulted >95% pure and stable RSK2 evaluated by SDS-PAGE and mass spectrometry.
RSK2 samples were reduced and alkylated with iodoacetamide, i.e. carbamidomethylated, and subsequently digested with chymotrypsin. […] The peptide mixture was analyzed in positive reflector mode for accurate peptide mass determination. […]

[1] = biological target: T2, C-terminal kinase domain of murine RSK2 (Mus musculus, UniProt P18654); experiment: X-ray co-crystal structure of RSK2 C-terminal kinase domain with DMF; format: binding; settings: 1.9 Å resolution X-ray crystal structure; RSK2 8 mg/ml with 5 mM DMF, 30 min at room temperature
T2 construct: His8 (N, cleaved yes); linker DYDIPTT (N, cleaved yes); TEV protease site ENLYFQG (only the final G remains after cleavage) (N, cleaved yes); made in house; host or cells: E. coli BL21 (DE3) Rosetta, RSK2-pET-22b
T2 sequence (P18654 with tags, fused parts or gaps): as above
Description: as §1, with “Cam. 2 liters of LB, supplemented with 100 μg/ml Amp and 35 μg/ml Cam, was inoculated with the overnight culture and grown at 37° C. Expression was induced with 0.1 mM isopropyl β-D-1-thiogalactopyranoside at an optical density of A600 nm=0.8 and the temperature was lowered to 20° C. for 3 h and further lowered to 12° C. for 20 hours.” for “Cam.”, “spectrometry. […]” for “spectrometry.”

human MSK1 = biological target: T3, human MSK1 (Homo sapiens, UniProt O75582, C603V); experiment: Mutational study of MSK1 in EGF-stimulated HEK 293 cells, Western blot p-MSK1 (Ser376); format: cell-based; settings: 140 μM DMF pre-incubated 1 hour, 1 ng/ml EGF for 30 minutes
T3 construct: expressed in transfected cells; host or cells: HEK-293, vector pEBG2T
T3 sequence (O75582 whole entry C603V): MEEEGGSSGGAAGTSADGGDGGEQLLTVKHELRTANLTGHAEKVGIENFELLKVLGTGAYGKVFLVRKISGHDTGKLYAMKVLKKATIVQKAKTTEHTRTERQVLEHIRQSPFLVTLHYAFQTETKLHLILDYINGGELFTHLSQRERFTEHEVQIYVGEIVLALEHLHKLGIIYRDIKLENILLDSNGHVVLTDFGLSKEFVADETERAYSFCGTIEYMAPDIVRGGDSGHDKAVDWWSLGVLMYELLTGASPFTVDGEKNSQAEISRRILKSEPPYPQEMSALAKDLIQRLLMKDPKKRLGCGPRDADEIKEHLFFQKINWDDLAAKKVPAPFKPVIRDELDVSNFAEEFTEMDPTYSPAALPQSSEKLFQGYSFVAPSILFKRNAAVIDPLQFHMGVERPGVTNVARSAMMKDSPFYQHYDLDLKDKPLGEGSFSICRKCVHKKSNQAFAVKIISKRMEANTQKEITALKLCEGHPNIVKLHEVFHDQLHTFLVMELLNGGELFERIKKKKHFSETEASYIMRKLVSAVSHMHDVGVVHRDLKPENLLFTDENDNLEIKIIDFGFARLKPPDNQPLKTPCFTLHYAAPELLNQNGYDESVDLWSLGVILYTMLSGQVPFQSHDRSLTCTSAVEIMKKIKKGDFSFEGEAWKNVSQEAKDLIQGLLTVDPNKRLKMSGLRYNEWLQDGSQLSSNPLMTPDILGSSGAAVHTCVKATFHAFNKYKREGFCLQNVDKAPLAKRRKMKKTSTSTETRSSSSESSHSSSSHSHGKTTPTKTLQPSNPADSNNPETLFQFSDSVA
Description: Mutational analysis of MSK1 was performed in a mammalian expression vector (pEBG2T) in which a glutathione S-transferase (GST) domain and FLAG-tag (Asp-Tyr-Lys-Asp-Asp-Asp-Asp-Lys) was fused to the N-terminus of human MSK1 (GST-FLAG-MSK1)^6. The positions corresponding to C436, T579 and C599 in murine RSK2 (SEQ ID NO: 1) of human MSK1 (C440, T583 and C603) were mutated to Val, Ser and Thr (For T583 only an Ala mutation was performed) using the QuikChange Lightning Kit (Agilent Technologies).
Human embryonic kidney cells (HEK-293) were cultured in tissue culture flasks (150 cm^2) to 60% confluence in Dulbecco's modified Eagle's medium (DMEM) (Gibco) supplemented with 50 units/ml penicillin G (Gibco), […] streptomycin (Invitrogen), 5 μg/ml gentamycin (Gibco), 10% (v/v) foetal bovine serum (FBS) (Gibco) and 2.5% HEPES (Gibco). […]
Dimethylfumarate (DMF) (Sigma-Aldrich) was dissolved in dimethylsulfoxide (DMSO) (Merck) resulting in a 70 mM stock solution and diluted to 7 mM (4% v/v DMSO) in culture medium. […] Densitometry analysis of the band intensity was performed on a flatbed scanner (Epson PERFECTION V750PRO) and quantitated by Jelly Quant. […]

RSK2 = biological target: T4, RSK2 (Mus musculus, UniProt P18654, C599V); experiment: Mutational study of RSK2 in EGF-stimulated HEK 293 cells, Western blot p-RSK2 (Ser386); format: cell-based; settings: 140 μM DMF pre-incubated 1 hour, 1 ng/ml EGF for 15 minutes
T4 construct: expressed in transfected cells; host or cells: HEK-293
T4 sequence (P18654 whole entry C599V): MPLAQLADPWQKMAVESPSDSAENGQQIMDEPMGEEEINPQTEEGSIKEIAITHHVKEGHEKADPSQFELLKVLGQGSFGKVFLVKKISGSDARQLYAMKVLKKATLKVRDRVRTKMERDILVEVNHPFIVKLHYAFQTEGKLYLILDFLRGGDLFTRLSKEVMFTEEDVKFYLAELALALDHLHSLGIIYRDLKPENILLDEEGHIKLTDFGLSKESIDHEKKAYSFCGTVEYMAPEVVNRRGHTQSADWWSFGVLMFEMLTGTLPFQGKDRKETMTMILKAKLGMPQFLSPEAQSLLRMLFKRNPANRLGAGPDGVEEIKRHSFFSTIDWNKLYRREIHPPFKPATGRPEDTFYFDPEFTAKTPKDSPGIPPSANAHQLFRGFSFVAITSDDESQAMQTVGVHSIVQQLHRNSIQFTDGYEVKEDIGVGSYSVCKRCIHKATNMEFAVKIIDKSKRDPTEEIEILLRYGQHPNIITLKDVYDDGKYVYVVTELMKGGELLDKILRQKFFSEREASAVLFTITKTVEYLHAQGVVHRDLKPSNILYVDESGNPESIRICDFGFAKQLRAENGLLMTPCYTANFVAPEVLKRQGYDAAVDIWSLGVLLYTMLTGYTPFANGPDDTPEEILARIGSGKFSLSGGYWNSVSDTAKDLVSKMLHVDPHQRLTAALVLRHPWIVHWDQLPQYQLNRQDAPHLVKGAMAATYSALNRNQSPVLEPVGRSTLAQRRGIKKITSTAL
Description: Human embryonic kidney cells (HEK-293) were cultured in tissue culture flasks (150 cm^2) to 60% confluence in Dulbecco's modified Eagle's medium (DMEM) (Gibco) supplemented with 50 units/ml penicillin G (Gibco), […] streptomycin (Invitrogen), 5 μg/ml gentamycin (Gibco), 10% (v/v) foetal bovine serum (FBS) (Gibco) and 2.5% HEPES (Gibco). Cells were trypsinated and seeded in 10 cm petri dishes at a density of 6.5×10^6 cells per dish in 10 ml DMEM supplemented with 50 μg/ml bovine pituitary growth hormone (BGH) (Gibco), antibiotics (penicillin G, streptomycin, gentamycin) and 2% FBS and 2.5% HEPES and were incubated for 2 days. The culture medium was changed to 7 ml DMEM supplemented with 2.5% Hepes for 16 hours. Transfection with plasmids was performed as previously described Jensen et al. 1999^57 with modifications. HEK-293 cells were transfected using 3.5 μg plasmid DNA/dish dissolved in 250 μl Optimem (Invitrogen) and 30 μl Lipofectamine 2000 (Invitrogen) dissolved in 250 μl Optimem added together for 20 minutes before transferred to cells. […]
Dimethylfumarate (DMF) (Sigma-Aldrich) was dissolved in dimethylsulfoxide (DMSO) (Merck) resulting in a 70 mM stock solution and diluted to 7 mM (4% v/v DMSO) in culture medium. […] Densitometry analysis of the band intensity was performed on a flatbed scanner (Epson PERFECTION V750PRO) and quantitated by Jelly Quant.

## COC(=O)/C=C/C(=O)OC [DMF, dimethyl fumarate]
RSK2 cysteine 599 (C599)
  covalent modification of C599 of RSK2 by DMF: Covalent modification of C599 was identified
[1]
  binding of DMF to RSK2 in co-crystal structure: binding of one DMF molecule to RSK2
Human MSK1
  effect of DMF on phosphorylation of S376 of MSK1 mutant C603 to valine: no decrease in the phosphorylation of S376 was observed
RSK2
  effect of DMF on phosphorylation of S386 of RSK2 mutant C599 to valine: no decrease in the phosphorylation of S386 was observed
